Source: BigSolDB 2.1

O=C(O)CCCCCCCCCCC(=O)O
solubility (mole fraction)
Details | 288.15 K | 293.15 K | 298.15 K | 303.15 K | 308.15 K | 313.15 K | 318.15 K | 323.15 K
in 2-butanone | 0.0025 | 0.0036 | 0.005 | 0.007 | 0.0097 | 0.0133 | 0.0189 | 0.0255
in 3-pentanone | 0.0013 | 0.0018 | 0.0026 | 0.0036 | 0.005 | 0.0068 | 0.0094 | 0.0128
in acetic acid | 0.0032 | 0.0045 | 0.006 | 0.0079 | 0.0112 | 0.0155 | 0.02 | 0.0268
in acetone | 0.003 | 0.0041 | 0.0058 | 0.0077 | 0.0107 | 0.0145 | 0.0193 | 0.0257
in ethanol | 0.0083 | 0.0107 | 0.0145 | 0.0194 | 0.025 | 0.0317 | 0.0408 | 0.0516
in ethyl acetate | 0.0012 | 0.0017 | 0.0024 | 0.0034 | 0.0048 | 0.0066 | 0.009 | 0.0122
